In ChEMBL document CHEMBL4715760, “Balancing potency, metabolic stability and permeability in pyrrolopyrimidine-based EGFR inhibitors” (Eur J Med Chem, 2016):

How the values were obtained:
[1] = biological target: Tyrosine-protein kinase ABL1 (Homo sapiens) (UniProt P00519); experiment: Inhibition of recombinant full length human His-tagged ABL1 cytoplasmic domain expressed in baculovirus expression system at 500 nM using Tyr 02 peptide as substrate incubated for 1 hr in presence of ATP at its Km concentration by Z'-LYTE assay relative to control
Sequence of Tyrosine-protein kinase ABL1 (Homo sapiens) (P00519 whole entry, the tested form may be a part): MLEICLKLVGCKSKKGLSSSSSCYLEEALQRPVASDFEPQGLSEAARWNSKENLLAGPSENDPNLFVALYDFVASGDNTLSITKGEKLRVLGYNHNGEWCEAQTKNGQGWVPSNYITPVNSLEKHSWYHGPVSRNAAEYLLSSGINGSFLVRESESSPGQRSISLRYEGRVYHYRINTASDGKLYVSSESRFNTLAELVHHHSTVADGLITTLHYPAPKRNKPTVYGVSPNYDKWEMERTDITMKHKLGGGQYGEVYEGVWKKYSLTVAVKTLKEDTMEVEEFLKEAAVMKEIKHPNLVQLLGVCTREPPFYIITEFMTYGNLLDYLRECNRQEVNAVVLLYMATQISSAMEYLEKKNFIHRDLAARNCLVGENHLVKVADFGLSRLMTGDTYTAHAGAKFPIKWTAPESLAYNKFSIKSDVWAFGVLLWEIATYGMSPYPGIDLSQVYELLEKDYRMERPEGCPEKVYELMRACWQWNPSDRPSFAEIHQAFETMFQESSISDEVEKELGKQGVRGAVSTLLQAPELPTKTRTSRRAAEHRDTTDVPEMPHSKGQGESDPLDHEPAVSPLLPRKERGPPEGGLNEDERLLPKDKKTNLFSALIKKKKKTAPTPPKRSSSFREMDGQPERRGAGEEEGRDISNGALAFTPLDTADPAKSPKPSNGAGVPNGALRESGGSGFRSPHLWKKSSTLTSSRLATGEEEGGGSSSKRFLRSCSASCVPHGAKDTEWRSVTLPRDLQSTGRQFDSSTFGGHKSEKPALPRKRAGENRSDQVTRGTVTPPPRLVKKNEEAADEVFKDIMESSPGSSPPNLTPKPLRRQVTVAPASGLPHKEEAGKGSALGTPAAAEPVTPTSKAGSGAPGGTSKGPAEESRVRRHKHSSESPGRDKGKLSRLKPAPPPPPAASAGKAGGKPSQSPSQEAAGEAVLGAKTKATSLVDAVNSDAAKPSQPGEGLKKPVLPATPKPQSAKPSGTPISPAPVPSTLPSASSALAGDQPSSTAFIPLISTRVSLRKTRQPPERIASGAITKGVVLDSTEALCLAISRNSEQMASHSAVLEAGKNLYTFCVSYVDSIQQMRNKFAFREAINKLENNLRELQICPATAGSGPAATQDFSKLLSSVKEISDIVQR

[2] = biological target: T1, Aurora kinase A (Homo sapiens) (UniProt O14965); experiment: Inhibition of recombinant human full length His-tagged AURKA expressed in baculovirus expression system at 500 nM using Ser/Thr 01 as substrate incubated for 1 hr in presence of ATP at its Km concentration by Z'-LYTE assay relative to control
T1 sequence (whole entry): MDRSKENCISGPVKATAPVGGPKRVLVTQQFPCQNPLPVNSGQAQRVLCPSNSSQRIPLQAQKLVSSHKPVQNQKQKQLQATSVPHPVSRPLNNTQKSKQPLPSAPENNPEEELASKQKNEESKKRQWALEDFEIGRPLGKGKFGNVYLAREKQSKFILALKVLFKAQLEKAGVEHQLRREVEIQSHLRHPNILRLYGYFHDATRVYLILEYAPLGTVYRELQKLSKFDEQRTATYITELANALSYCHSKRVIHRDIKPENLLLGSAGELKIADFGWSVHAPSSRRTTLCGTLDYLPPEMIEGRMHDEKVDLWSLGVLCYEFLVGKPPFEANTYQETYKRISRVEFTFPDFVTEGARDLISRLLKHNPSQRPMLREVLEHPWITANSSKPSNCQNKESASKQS

[3] = biological target: Tyrosine-protein kinase Blk (Homo sapiens) (UniProt P51451); experiment: Inhibition of recombinant human His-tagged full length BLK expressed in baculovirus expression system at 500 nM using Tyr 01 peptide as substrate incubated for 1 hr in presence of ATP at its Km concentration by Z'-LYTE assay relative to control
Sequence of Tyrosine-protein kinase Blk (Homo sapiens) (P51451 2-505 limits assumed): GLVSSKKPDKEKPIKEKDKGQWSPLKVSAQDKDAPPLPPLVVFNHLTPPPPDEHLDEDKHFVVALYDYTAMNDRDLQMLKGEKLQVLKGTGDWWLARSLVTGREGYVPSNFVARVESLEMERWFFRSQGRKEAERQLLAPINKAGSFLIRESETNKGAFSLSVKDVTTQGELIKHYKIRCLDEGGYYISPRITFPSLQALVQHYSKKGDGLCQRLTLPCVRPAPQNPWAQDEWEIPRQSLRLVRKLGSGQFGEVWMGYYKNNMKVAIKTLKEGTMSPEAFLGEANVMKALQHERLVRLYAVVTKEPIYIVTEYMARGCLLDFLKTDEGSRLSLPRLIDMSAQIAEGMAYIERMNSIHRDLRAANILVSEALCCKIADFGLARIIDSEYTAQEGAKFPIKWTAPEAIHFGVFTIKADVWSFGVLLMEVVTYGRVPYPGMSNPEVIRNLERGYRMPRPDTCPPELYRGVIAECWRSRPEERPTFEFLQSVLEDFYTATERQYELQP

[4] = biological target: T2, Serine/threonine-protein kinase Chk1 (Homo sapiens) (UniProt O14757); experiment: Inhibition of recombinant human full-length His-tagged CHEK1 expressed in baculovirus expression system at 500 nM using Ser/Thr 19 peptide as substrate incubated for 1 hr in presence of ATP at its Km concentration by Z'-LYTE assay relative to control
T2 sequence (whole entry): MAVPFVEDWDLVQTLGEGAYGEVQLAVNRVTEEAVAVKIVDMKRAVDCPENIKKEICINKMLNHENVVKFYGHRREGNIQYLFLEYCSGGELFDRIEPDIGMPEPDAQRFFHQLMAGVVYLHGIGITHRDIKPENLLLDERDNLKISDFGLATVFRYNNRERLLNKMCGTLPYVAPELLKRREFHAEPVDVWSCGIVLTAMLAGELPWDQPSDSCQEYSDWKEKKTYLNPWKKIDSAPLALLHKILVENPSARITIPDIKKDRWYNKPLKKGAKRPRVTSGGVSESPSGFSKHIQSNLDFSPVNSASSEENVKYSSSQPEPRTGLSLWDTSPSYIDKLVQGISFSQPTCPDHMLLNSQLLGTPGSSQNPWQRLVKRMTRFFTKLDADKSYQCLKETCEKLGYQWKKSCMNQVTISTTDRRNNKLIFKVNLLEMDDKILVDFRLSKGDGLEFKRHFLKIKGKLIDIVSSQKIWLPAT

[5] = biological target: Receptor tyrosine-protein kinase erbB-2 (Homo sapiens) (UniProt P04626); experiment: Inhibition of recombinant human His-tagged ERBB2 (676 to 1255 residues) expressed in baculovirus expression system at 500 nM using Tyr 06 peptide as substrate incubated for 1 hr in presence of ATP at its Km concentration by Z'-LYTE assay relative to control
[6] = biological target: Tyrosine-protein kinase Fgr (Homo sapiens) (UniProt P09769); experiment: Inhibition of recombinant full length human C-terminal His-tagged FGR expressed in baculovirus expression system at 500 nM using Tyr 02 peptide as substrate incubated for 1 hr in presence of ATP at its Km concentration by Z'-LYTE assay relative to control
Sequence of Tyrosine-protein kinase Fgr (Homo sapiens) (P09769 2-529 limits assumed): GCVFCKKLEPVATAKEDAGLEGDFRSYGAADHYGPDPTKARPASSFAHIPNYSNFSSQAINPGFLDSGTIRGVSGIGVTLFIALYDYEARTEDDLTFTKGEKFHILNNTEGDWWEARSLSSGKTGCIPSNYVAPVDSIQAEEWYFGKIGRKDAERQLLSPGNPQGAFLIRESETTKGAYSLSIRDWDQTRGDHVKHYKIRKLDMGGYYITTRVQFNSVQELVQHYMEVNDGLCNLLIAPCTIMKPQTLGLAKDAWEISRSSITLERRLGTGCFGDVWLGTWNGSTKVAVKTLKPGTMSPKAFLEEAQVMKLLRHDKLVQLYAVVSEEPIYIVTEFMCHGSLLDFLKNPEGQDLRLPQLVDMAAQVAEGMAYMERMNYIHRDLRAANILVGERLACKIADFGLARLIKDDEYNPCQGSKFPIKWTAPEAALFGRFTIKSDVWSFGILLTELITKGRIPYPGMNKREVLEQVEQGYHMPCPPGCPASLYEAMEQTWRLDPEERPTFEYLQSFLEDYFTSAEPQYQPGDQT

[7] = biological target: Tyrosine-protein kinase FRK (Homo sapiens) (UniProt P42685); experiment: Inhibition of recombinant human GST-tagged full length FRK expressed in baculovirus expression system at 500 nM using Tyr 01 peptide as substrate incubated for 1 hr in presence of ATP at its Km concentration by Z'-LYTE assay relative to control
[8] = biological target: Mast/stem cell growth factor receptor Kit (Homo sapiens) (UniProt P10721); experiment: Inhibition of human recombinant His-tagged c-Kit cytoplasmic domain (544 to 976 residues) expressed in baculovirus expression system at 500 nM using Tyr 06 as substrate incubated for 1 hr in presence of ATP at its Km concentration by Z'-LYTE assay relative to control
[9] = biological target: Platelet-derived growth factor receptor beta (Homo sapiens) (UniProt P09619); experiment: Inhibition of recombinant human His-tagged PDGFRbeta cytoplasmic domain expressed in baculovirus expression system at 500 nM using Tyr 04 as substrate incubated for 1 hr in presence of ATP at its Km concentration by Z'-LYTE assay relative to control
Sequence of Platelet-derived growth factor receptor beta (Homo sapiens) (P09619 whole entry, the tested form may be a part): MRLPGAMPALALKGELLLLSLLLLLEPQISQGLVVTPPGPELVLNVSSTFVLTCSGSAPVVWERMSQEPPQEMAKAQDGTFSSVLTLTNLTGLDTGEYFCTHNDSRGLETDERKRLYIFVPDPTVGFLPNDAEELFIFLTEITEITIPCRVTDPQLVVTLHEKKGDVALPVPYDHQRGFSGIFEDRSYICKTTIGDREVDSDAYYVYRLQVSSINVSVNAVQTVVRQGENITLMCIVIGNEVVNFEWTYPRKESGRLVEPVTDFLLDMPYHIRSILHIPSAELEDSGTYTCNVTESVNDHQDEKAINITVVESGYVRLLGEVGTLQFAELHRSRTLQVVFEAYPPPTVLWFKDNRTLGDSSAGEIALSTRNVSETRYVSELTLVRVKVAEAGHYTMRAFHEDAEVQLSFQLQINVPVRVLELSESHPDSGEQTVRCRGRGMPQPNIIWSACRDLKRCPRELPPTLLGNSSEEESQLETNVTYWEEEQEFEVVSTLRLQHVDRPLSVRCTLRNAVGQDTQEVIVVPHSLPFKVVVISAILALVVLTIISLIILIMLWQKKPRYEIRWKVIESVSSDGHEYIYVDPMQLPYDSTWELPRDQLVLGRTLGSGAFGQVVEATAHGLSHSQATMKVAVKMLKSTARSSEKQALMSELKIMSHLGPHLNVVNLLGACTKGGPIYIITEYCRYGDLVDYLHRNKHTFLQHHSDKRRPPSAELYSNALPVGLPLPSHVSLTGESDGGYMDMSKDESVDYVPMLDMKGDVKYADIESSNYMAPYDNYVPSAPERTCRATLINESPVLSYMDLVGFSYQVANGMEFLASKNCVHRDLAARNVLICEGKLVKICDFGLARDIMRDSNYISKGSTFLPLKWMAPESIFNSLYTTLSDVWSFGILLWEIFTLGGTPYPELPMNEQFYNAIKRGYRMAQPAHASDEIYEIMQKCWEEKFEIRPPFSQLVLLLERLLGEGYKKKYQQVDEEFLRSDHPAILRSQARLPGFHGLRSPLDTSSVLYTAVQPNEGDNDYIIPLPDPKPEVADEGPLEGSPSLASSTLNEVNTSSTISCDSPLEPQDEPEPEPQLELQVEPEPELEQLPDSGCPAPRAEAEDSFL

[10] = biological target: Protein kinase C beta type (Homo sapiens) (UniProt P05771); experiment: Inhibition of human full length GST tagged PRKCB1 expressed in insect cells at 500 nM using Ser/Thr 07 as substrate incubated for 1 hr in presence of ATP at its Km concentration by Z'-LYTE assay relative to control
Sequence of Protein kinase C beta type (Homo sapiens) (P05771 2-671 limits assumed): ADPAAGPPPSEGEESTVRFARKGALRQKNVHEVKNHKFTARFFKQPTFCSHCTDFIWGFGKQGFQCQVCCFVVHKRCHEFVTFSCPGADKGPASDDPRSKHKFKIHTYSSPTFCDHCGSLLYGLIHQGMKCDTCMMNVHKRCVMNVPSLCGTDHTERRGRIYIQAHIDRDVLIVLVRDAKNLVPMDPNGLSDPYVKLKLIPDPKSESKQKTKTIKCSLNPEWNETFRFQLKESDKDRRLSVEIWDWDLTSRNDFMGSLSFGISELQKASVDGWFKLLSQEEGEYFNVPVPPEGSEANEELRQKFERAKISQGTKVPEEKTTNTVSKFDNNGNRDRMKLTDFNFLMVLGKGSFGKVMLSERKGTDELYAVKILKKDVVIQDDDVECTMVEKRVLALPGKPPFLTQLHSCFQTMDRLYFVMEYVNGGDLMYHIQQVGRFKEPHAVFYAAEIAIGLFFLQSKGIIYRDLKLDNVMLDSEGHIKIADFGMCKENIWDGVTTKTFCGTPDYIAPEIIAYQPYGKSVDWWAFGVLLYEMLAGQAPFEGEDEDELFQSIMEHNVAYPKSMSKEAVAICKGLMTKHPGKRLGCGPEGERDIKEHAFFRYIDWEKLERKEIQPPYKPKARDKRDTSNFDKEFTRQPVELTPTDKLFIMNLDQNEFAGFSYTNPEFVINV

[11] = biological target: Proto-oncogene tyrosine-protein kinase receptor Ret (Homo sapiens) (UniProt P07949); experiment: Inhibition of recombinant human GST-tagged RET (658 to 1114 residues) expressed in baculovirus expression system at 500 nM using Tyr 02 as substrate incubated for 1 hr in presence of ATP at its Km concentration by Z'-LYTE assay relative to control
Sequence of Proto-oncogene tyrosine-protein kinase receptor Ret (Homo sapiens) (P07949 whole entry, the tested form may be a part): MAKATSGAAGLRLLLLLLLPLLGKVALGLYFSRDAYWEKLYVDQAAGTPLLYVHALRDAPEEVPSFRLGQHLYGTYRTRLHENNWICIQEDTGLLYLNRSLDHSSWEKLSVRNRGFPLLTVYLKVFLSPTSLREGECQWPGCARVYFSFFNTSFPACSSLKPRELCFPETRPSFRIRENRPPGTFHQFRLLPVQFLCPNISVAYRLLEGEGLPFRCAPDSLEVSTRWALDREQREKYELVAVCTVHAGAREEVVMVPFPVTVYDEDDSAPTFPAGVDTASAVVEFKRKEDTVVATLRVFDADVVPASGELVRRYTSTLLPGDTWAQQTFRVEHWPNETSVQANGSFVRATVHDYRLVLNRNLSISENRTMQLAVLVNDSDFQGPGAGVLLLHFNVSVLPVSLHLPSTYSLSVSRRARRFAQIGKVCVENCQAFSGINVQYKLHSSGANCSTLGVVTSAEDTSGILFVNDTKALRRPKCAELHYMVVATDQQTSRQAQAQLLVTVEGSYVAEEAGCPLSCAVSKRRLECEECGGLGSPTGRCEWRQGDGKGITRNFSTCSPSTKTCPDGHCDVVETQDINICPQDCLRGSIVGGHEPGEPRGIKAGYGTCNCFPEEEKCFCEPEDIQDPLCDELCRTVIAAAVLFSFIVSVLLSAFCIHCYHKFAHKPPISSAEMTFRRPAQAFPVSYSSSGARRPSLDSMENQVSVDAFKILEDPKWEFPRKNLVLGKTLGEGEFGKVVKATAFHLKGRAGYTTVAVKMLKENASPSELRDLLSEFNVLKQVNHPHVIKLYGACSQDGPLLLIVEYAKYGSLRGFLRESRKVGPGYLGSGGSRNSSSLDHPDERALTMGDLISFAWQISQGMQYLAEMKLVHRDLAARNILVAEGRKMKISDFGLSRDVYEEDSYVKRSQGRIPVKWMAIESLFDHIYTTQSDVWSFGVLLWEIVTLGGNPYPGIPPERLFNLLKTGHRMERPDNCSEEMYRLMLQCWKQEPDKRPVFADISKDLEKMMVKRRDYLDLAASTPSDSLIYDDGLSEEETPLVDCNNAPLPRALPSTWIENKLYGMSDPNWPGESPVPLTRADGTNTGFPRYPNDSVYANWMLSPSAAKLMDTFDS

[12] = biological target: Tyrosine-protein kinase SYK (Homo sapiens) (UniProt P43405); experiment: Inhibition of recombinant human N-terminal GST-tagged full length SYK expressed in baculovirus expression system at 500 nM using Tyr 02 as substrate incubated for 1 hr in presence of ATP at its Km concentration by Z'-LYTE assay relative to control
[13] = biological target: Epidermal growth factor receptor (Homo sapiens, UniProt P00533); settings: dose 500.0 nM, time 1.0 hrs
[14] = test system: A-431; experiment: Antiproliferative activity against human A431 cells; format: functional, cell-based
[15] = biological target: Serine/threonine-protein kinase PLK1 (Homo sapiens) (UniProt P53350); experiment: Inhibition of recombinant full length human His-tagged PLK1 expressed in baculovirus expression system at 500 nM using Ser/Thr 16 as substrate incubated for 1 hr in presence of ATP at its Km concentration by Z'-LYTE assay relative to control

inhibition [1] [%]	inhibition [2] [%]	inhibition [3] [%]	inhibition [4] [%]	inhibition [5] [%]	inhibition [6] [%]	inhibition [7] [%]	inhibition [8] [%]	inhibition [9] [%]	inhibition [10] [%]	inhibition [11] [%]	inhibition [12] [%]	inhibition [13] [%]	IC50 [14] [nM]	inhibition [15] [%]	Compound
50	9	29	3	53	74	36	17	0	8	15	14	100	–	–	COc1ccccc1-c1cc2c(N[C@H](CO)c3ccccc3)ncnc2[nH]1
–	20	38	-7	52	–	16	17	-5	-2	–	–	–	400	-9	C#Cc1cccc(Nc2ncnc3cc(OCCOC)c(OCCOC)cc23)c1 [ERLOTINIB]
87	3	22	–	58	83	49	1	10	17	25	21	104	> 10000	-3	CN(C)CCNCc1ccc(-c2cc3c(N[C@H](CO)c4ccccc4)ncnc3[nH]2)cc1F
33	-2	14	–	35	73	32	–	8	15	9	11	102	9200	-3	CCOc1ccccc1-c1cc2c(N[C@H](CO)c3ccccc3)ncnc2[nH]1
65	19	33	10	53	73	33	20	-1	1	14	29	96	300	1	OC[C@@H](Nc1ncnc2[nH]c(-c3ccccc3)cc12)c1ccccc1
38	-3	17	–	36	67	14	–	11	6	2	5	100	800	-5	OCC[C@@H](Nc1ncnc2[nH]c(-c3ccccc3)cc12)c1ccccc1
